Test results from the supplement of paper PMC11451515.

Test system: NOMO1
Assay: cell viability relative to DMSO control; higher = less cytotoxic
Details: 48 h
Outline: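 NOMO1 or SEM (500 cells/well) or P12-Ichikawa (1000 cells/well) leukemia cells were adapted for at least four passages in each medium. They were seeded in 1536-well plates (5 μl) and pin-dosed with library compounds in DMSO over an 11-point threefold series, 47 μM to 0.79 nM. CellTiter-Glo One luminescence was read after 48 h at 37°C. Viability is the per-plate percentage relative to DMSO wells, with cell-free wells as background.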

[1] = HPLM + 10% dialyzed FBS, 0.000781 µM
[2] = HPLM + 10% dialyzed FBS, 0.00234 µM
[3] = HPLM + 10% dialyzed FBS, 0.00702 µM
[4] = HPLM + 10% dialyzed FBS, 0.0211 µM
[5] = HPLM + 10% dialyzed FBS, 0.0632 µM
[6] = HPLM + 10% dialyzed FBS, 0.19 µM
[7] = HPLM + 10% dialyzed FBS, 0.569 µM
[8] = HPLM + 10% dialyzed FBS, 1.71 µM
[9] = HPLM + 10% dialyzed FBS, 5.12 µM
[10] = HPLM + 10% dialyzed FBS, 15.4 µM
[11] = HPLM + 10% dialyzed FBS, 46.1 µM
[12] = RPMI 5 mM glucose + 10% FBS, 0.000781 µM
[13] = RPMI 5 mM glucose + 10% FBS, 0.00234 µM
[14] = RPMI 5 mM glucose + 10% FBS, 0.00702 µM
[15] = RPMI 5 mM glucose + 10% FBS, 0.0211 µM
[16] = RPMI 5 mM glucose + 10% FBS, 0.0632 µM
[17] = RPMI 5 mM glucose + 10% FBS, 0.19 µM
[18] = RPMI 5 mM glucose + 10% FBS, 0.569 µM
[19] = RPMI 5 mM glucose + 10% FBS, 1.71 µM
[20] = RPMI 5 mM glucose + 10% FBS, 5.12 µM
[21] = RPMI 5 mM glucose + 10% FBS, 15.4 µM
[22] = RPMI 5 mM glucose + 10% FBS, 46.1 µM
[23] = RPMI 5 mM glucose + 10% dialyzed FBS, 0.000781 µM
[24] = RPMI 5 mM glucose + 10% dialyzed FBS, 0.00234 µM
[25] = RPMI 5 mM glucose + 10% dialyzed FBS, 0.00702 µM
[26] = RPMI 5 mM glucose + 10% dialyzed FBS, 0.0211 µM
[27] = RPMI 5 mM glucose + 10% dialyzed FBS, 0.0632 µM
[28] = RPMI 5 mM glucose + 10% dialyzed FBS, 0.19 µM
[29] = RPMI 5 mM glucose + 10% dialyzed FBS, 0.569 µM
[30] = RPMI 5 mM glucose + 10% dialyzed FBS, 1.71 µM
[31] = RPMI 5 mM glucose + 10% dialyzed FBS, 5.12 µM
[32] = RPMI 5 mM glucose + 10% dialyzed FBS, 15.4 µM
[33] = RPMI 5 mM glucose + 10% dialyzed FBS, 46.1 µM

CCOC(=O)c1ncn2c1CN(C)C(=O)c1cc(F)ccc1-2
cell viability [1]: 131% | cell viability [2]: 124% | cell viability [3]: 124% | cell viability [4]: 117% | cell viability [5]: 123% | cell viability [6]: 120% | cell viability [7]: 109% | cell viability [8]: 110% | cell viability [9]: 108% | cell viability [10]: 90% | cell viability [11]: 73.6% | cell viability [12]: 116% | cell viability [13]: 130% | cell viability [14]: 118% | cell viability [15]: 111% | cell viability [16]: 99.6% | cell viability [17]: 104% | cell viability [18]: 106% | cell viability [19]: 120% | cell viability [20]: 120% | cell viability [21]: 108% | cell viability [22]: 76.8% | cell viability [23]: 122% | cell viability [24]: 109% | cell viability [25]: 110% | cell viability [26]: 124% | cell viability [27]: 113% | cell viability [28]: 107% | cell viability [29]: 128% | cell viability [30]: 95.7% | cell viability [31]: 116% | cell viability [32]: 103% | cell viability [33]: 78.8%

Clc1ccc(COC(Cn2ccnc2)c2ccc(Cl)cc2Cl)cc1 (stereo unspecified)
cell viability [1]: 118% | cell viability [2]: 119% | cell viability [3]: 105% | cell viability [4]: 115% | cell viability [5]: 111% | cell viability [6]: 104% | cell viability [7]: 111% | cell viability [8]: 127% | cell viability [9]: 132% | cell viability [10]: 118% | cell viability [11]: 93.2% | cell viability [12]: 107% | cell viability [13]: 104% | cell viability [14]: 110% | cell viability [15]: 123% | cell viability [16]: 111% | cell viability [17]: 109% | cell viability [18]: 121% | cell viability [19]: 117% | cell viability [20]: 119% | cell viability [21]: 110% | cell viability [22]: 102% | cell viability [23]: 114% | cell viability [24]: 112% | cell viability [25]: 103% | cell viability [26]: 121% | cell viability [27]: 115% | cell viability [28]: 125% | cell viability [29]: 121% | cell viability [30]: 120% | cell viability [31]: 114% | cell viability [32]: 121% | cell viability [33]: 83.6%
